Measurements as given in patent US20130296370A1, “COMPOSITION COMPRISING A PHOTOACTIVATABLE LARVICIDE” (UNIVERSITA DEGLI STUDI DI PADOVA, priority 2010, published 2013).

Legend:
[1] = test system: An. stephensi; assay: Laboratory-scale tray larvicide test; format: in vivo; conditions: carrier mouse food; 6 mg per tray; loading concentration 0.5 μM; fluorescent lamp
Procedure: (§1) Laboratory strains of Anopheles stephensi, M and S (Kisumu), chromosomal forms of An. gambiae, An. arabiensis and Aedes aegypti, as well as field-collected Anopheles spp. and Aedes spp. larvae were used. Laboratory mosquitoes were maintained at 28-30° C., >90% RH and a photoperiod of 12 h. Light intensity ranged between 0.5 mW/cm^2 (fluorescent lamp) and 185 mW/cm^2 (sunlight).
(§2) C12 or C14 porphyrin solutions at 5-100 μM concentrations were pre-incubated at room temperature in the darkness with 15-60 mg of carrier (either Eudragit or ground mouse food or cat food) for 4-12 hours under gentle shaking. After incubation the solutions were filtered, and the loaded carrier was dried at room temperature or in an oven (45° C.).
(§3) One litre capacity, transparent plastic trays containing wells with each 500 ml water and 6-60 mg of the composition of the present invention were prepared. Batches of 60-100 L2, L3 or L4 larvae were introduced into the trays after sunset (or artificial light off). Larval mortality was evaluated the next day starting from 8.00 am, and the time required to reach at least 90% mortality was recorded. Larvae not moving or not showing an escaping response at probing were defined as dead or dying, and counted together (Tables 2 and 3). Pupae occasionally formed throughout the irradiation time were discarded and excluded from the evaluation. An equal number of batches of larvae prepared in the same way were kept in continuous darkness and mortality was evaluated similarly, to assess toxicity in the dark.
Light intensity range: 0.5-185 mW/cm^2.

[2] = test system: Aedes aegypti; assay: Laboratory-scale tray larvicide test; format: in vivo; conditions: carrier mouse food; 70 mg per tray; loading concentration 5 μM; fluorescent lamp
Procedure: as §1, §2
as §3, with “Batches” for “One litre capacity, transparent plastic trays containing wells with each 500 ml water and 6-60 mg of the composition of the present invention were prepared. Batches”, “dark. […]” for “dark.”

[3] = test system: Aedes aegypti larvae; assay: C14 porphyrin toxicity in the light; format: in vivo; conditions: 5 μM C14
Procedure: […] After the irradiation period, larvae were kept in the dark and larval mortality was monitored for 6 days. Arithmetic means of percentages of dead larvae. Error bars represent standard deviations (n=3 replicates of 50 larvae each).
Irradiation of mosquito larvae were performed by employing full spectrum visible light (400-800 nm) at a fluence rate of 1.0 to 4.0 mW/cm^2 using low-pressure mercury discharge fluorescent tubes TL-D Standard Colours (TL-D 58W/33-640 1SL, PHILIPS, EC). The intensity of the incident radiation was measured by an ILT1400A radiometer/photometer, equipped with a SED623/HNK15 multi-junction thermopile detector (International Light Technologies Inc., MA, USA).
All the experiments were carried out in a climatic chamber at 28±2° C. with a regulated photoperiod of 12 hours. Transparent plastic trays, containing 500 ml C14 solutions or spring water were employed. Typically, 5±1 days old, 3rd-early 4th instar Aedes aegypti larvae were used. All the experiments were replicated three times.
Fifty larvae were added to groups of trays containing 5 μM porphyrin C14 solution or spring water as a control. Trays were provided with PFP (wherein PFP means powdered food pellet (PFP) with final particle diameter of 5-500 μm diameter obtained by crushing a standard food pellet for laboratory rodents, namely 4RF18 GLP (Mucedola Srl, Italy) using an electric blender and then sieving at mesh diameter 500 μm) and incubated in the dark for 12 hours. […] After irradiation, the trays were returned in the dark, and larval mortality was assessed every 24 hours for the following 6 days. Larvae not moving or not showing a normally vigorous escaping response at probing were defined as dead or dying, respectively, and counted together. Pupae formed during the experiment were transferred to smaller trays containing spring water, within screened cages at normal colony photoperiod conditions, and monitored for mortality and adult emergence.

[4] = Singlet oxygen quantum yield (DMA chemical quenching); format: physicochemical; conditions: DMA quenching in DMF; 400-800 nm, 100 mW/cm^2
Procedure: The potential of the C14 porphyrin as a photosensitising agent was assessed on the basis of the quantum yield (φΔ) of singlet oxygen (^1O2) generation by the photoexcited triplet state of the porphyrin, namely the number of ^1O2 molecules generated per number of absorbed light photons. In the present study φΔ was measured by following the decrease in the fluorescence emission of 9,10-dimethyl-anthracene (DMA) upon its photosensitised conversion into the corresponding non-fluorescent 9,10-endoperoxide. […] In a typical experiment, a DMA solution (1.5 ml, initial absorbance around 1 at 380 nm) and porphyrin solution (1.5 ml, initial absorbance around 0.4 at 420 nm) in N,N-dimethyl-formamide (DMF) were placed in a quartz cuvette with a 1 cm optical path and irradiated with 400-800 nm light wavelengths (Teclas lamp, 100 mW cm-2) at 20° C.±2° C. under gentle magnetic stirring for different periods of time up to 20 min. The DMA fluorescence emission was recorded in the 380-550 nm wavelength range with excitation at 360 nm. The first-order rate constant of the photoprocess was obtained by plotting In F0/F as a function of the irradiation time t, where F0 and F represent the fluorescence intensity at time 0 and time t, respectively. The slope of the linear plot thus obtained allowed the rate constant of the photoprocess to be calculated. […]

CCCCCCCCCCCCCC[n+]1ccc(-c2c3nc(c(-c4cc[n+](C)cc4)c4ccc([nH]4)c(-c4cc[n+](C)cc4)c4nc(c(-c5cc[n+](C)cc5)c5ccc2[nH]5)C=C4)C=C3)cc1.Cc1ccc(S(=O)(=O)[O-])cc1.Cc1ccc(S(=O)(=O)[O-])cc1.Cc1ccc(S(=O)(=O)[O-])cc1.Cc1ccc(S(=O)(=O)[O-])cc1 [C14, meso-tri(N-methyl-pyridyl), mono(N-tetradecyl-pyridyl)porphine]
Time to reach ≧90% mortality [1]: 1 h | Time to reach ≧90% mortality [2]: 3 h | larval mortality ([3]; 6 hour-long light, count 24 hours later): 100% | larval mortality ([3]; dark-incubated 8 hours, 6 hour-long light 1.0-4.0 mW/cm^2, within irradiation period): 97.99%±0.05% | larval mortality ([3]; irradiated one hour, thereafter kept in the dark, day 6): 92.1%±7.9% | quantum yield of ^1O2 photogeneration [4]: 0.46
